Source: ChEMBL document CHEMBL1144646, “Imidazole moiety replacements in the 3-(1H-benzo[d]imidazol-2-yl)pyridin-2(1H)-one inhibitors of insulin-like growth factor receptor-1 (IGF-1R) to improve cytochrome P450 profile” (Bioorg Med Chem Lett, 2007)

Tests used:
Cytochrome P450 2C9 = Cytochrome P450 2C9 (Homo sapiens, UniProt P11712); assay: Inhibition of CYP2C9 in microsomes; format: ADME
Cytochrome P450 3A4 = Cytochrome P450 3A4 (Homo sapiens, UniProt P08684); assay: Inhibition of CYP3A4 in microsomes
Cytochrome P450 1A2 = target: T1, Cytochrome P450 1A2 (Homo sapiens, UniProt P05177); assay: Inhibition of CYP1A2 in microsomes; format: ADME
T1 sequence (P05177 whole entry): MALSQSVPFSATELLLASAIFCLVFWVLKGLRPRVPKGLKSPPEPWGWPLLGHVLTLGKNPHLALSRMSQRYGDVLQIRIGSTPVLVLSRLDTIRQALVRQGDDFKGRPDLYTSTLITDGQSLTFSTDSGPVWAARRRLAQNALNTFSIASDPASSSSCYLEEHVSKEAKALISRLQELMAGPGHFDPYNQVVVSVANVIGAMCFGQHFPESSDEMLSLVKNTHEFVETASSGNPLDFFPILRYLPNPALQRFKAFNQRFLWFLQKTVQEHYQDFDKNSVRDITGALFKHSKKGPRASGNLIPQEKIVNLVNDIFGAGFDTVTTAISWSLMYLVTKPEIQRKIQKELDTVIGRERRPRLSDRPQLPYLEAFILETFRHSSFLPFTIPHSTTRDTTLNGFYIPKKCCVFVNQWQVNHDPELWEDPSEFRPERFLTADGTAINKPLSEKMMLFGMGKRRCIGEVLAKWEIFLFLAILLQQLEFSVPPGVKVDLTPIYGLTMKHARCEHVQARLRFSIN

Cytochrome P450 2C19 = Cytochrome P450 2C19 (Homo sapiens, UniProt P33261); assay: Inhibition of CYP2C19 in microsomes; format: ADME
Cytochrome P450 2D6 = Cytochrome P450 2D6 (Homo sapiens, UniProt P10635); assay: Inhibition of CYP2D6 in microsomes; format: ADME
Chain of Cytochrome P450 2D6 (P10635 whole entry): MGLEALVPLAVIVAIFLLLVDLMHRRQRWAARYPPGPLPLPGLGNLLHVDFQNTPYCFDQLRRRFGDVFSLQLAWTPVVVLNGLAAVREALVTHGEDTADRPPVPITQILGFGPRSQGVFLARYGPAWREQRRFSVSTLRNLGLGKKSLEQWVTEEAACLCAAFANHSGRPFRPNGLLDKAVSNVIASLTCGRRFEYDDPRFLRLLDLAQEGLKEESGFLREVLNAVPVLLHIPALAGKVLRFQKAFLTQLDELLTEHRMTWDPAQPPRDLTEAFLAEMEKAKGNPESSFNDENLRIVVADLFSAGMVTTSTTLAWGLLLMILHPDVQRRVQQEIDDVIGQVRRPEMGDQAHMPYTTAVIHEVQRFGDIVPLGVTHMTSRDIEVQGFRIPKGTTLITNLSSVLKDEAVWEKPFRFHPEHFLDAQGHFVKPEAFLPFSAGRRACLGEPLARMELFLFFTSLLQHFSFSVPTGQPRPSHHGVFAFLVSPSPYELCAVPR

Chain of Cytochrome P450 2C19 (P33261 whole entry): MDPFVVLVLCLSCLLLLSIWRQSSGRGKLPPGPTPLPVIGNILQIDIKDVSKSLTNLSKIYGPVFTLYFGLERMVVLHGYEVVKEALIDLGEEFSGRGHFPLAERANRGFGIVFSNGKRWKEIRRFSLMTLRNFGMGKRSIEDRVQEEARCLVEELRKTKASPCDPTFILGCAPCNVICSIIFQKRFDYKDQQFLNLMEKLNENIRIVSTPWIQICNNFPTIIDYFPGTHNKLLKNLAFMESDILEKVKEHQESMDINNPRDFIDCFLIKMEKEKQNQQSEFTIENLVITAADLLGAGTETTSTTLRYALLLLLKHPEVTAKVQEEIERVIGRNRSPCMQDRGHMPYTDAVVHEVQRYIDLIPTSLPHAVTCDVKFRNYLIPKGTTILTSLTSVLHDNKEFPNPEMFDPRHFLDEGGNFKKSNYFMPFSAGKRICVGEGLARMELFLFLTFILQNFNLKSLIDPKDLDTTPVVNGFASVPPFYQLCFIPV
Chain of Cytochrome P450 3A4 (P08684 whole entry): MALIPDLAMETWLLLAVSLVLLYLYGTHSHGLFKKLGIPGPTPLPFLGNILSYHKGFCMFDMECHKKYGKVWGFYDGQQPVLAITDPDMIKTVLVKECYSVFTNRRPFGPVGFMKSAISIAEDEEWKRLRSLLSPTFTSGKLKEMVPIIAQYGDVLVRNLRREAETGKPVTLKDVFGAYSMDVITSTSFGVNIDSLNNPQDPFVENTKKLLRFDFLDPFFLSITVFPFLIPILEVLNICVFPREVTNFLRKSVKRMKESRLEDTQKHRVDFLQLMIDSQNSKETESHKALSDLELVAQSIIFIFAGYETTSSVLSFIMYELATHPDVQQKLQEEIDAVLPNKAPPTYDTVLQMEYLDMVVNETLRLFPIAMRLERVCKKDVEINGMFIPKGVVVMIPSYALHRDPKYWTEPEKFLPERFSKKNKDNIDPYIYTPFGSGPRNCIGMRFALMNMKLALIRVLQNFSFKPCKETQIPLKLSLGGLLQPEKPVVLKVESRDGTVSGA
Chain of Cytochrome P450 2C9 (P11712 whole entry): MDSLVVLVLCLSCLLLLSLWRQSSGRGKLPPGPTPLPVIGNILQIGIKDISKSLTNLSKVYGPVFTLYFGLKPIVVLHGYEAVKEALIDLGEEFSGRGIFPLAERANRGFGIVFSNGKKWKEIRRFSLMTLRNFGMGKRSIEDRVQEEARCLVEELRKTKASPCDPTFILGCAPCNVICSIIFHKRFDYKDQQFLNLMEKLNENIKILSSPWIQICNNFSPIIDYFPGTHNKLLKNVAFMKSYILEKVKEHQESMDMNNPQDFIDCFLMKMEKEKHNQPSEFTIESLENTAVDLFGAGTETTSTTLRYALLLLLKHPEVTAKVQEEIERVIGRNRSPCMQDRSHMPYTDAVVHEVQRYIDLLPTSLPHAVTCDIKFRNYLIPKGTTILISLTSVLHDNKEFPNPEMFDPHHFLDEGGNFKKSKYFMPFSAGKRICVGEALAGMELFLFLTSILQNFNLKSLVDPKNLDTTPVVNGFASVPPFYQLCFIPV

SMILES | IC50 (Cytochrome P450 2C9) [µM] | IC50 (Cytochrome P450 3A4) [µM] | IC50 (Cytochrome P450 1A2) [µM] | IC50 (Cytochrome P450 2C19) [µM] | IC50 (Cytochrome P450 2D6) [µM]
Cc1cc(C2=NC(C)(C)CN2)cc2[nH]c(-c3c(NCC(O)c4cccc(Cl)c4)cc[nH]c3=O)nc12 (configuration not stated) | 47 | 13 | 11 | 5.1 | –
Cc1cc(C2=NCCCN2)cc2[nH]c(-c3c(NCC(O)c4cccc(Cl)c4)cc[nH]c3=O)nc12 (configuration not stated) | 100 | 16 | 20 | 8.5 | –
Cc1cc(-n2ccnc2)cc2[nH]c(-c3c(N[C@H](CO)Cc4ccccc4)cc[nH]c3=O)nc12 | < 0.04 | 0.06 | < 0.04 | < 0.04 | 0.56
Cc1cc(-c2ccccc2)cc2[nH]c(-c3c(N[C@H](CO)Cc4ccccc4)cc[nH]c3=O)nc12 | 2.3 | 3.6 | 0.58 | 0.53 | –
Cc1cc(-c2ccc(F)cc2)cc2[nH]c(-c3c(N[C@H](CO)Cc4ccccc4)cc[nH]c3=O)nc12 | 4 | 6.3 | 3.2 | 1 | –
Cc1cccc2[nH]c(-c3c(NCC(O)c4cccc(Cl)c4)cc[nH]c3=O)nc12 (configuration not stated) | 1.5 | 0.71 | 0.38 | 0.26 | –
Cc1cc(-n2ccnc2)cc2[nH]c(-c3c(NCC(O)c4cccc(Cl)c4)cc[nH]c3=O)nc12 (configuration not stated) | < 0.04 | < 0.046 | < 0.04 | < 0.04 | –
CNC(=O)c1cc(C)c2nc(-c3c(NCC(O)c4cccc(Cl)c4)cc[nH]c3=O)[nH]c2c1 (configuration not stated) | 2.9 | 3.7 | 21 | 2.1 | –
Cc1cc(C(=O)N(C)C)cc2[nH]c(-c3c(NCC(O)c4cccc(Cl)c4)cc[nH]c3=O)nc12 (configuration not stated) | 2.8 | 2.2 | 15 | 1.7 | –
Cc1cc(C(=O)NC2CC2)cc2[nH]c(-c3c(NCC(O)c4cccc(Cl)c4)cc[nH]c3=O)nc12 (configuration not stated) | 8.1 | 10 | 93 | 3.5 | –
Cc1cc(C(=O)NC2CCCC2)cc2[nH]c(-c3c(NCC(O)c4cccc(Cl)c4)cc[nH]c3=O)nc12 (configuration not stated) | 3.5 | 1.6 | 9.8 | 0.48 | –
Cc1cc(C(=O)NC2CCCCC2)cc2[nH]c(-c3c(NCC(O)c4cccc(Cl)c4)cc[nH]c3=O)nc12 (configuration not stated) | 6.6 | 11 | 59 | 1.3 | –
Cc1c[nH]c(-c2cc(C)c3[nH]c(-c4c(NCC(O)c5cccc(Cl)c5)cc[nH]c4=O)nc3c2)n1 (configuration not stated) | 7.8 | 0.36 | 5.8 | 2 | –
Cc1cc(C2=NCCN2C)cc2[nH]c(-c3c(NCC(O)c4cccc(Cl)c4)cc[nH]c3=O)nc12 (configuration not stated) | 91 | 35 | 53 | 17 | –
Cc1cc(C2=NC(C)CN2)cc2[nH]c(-c3c(NCC(O)c4cccc(Cl)c4)cc[nH]c3=O)nc12 (configuration not stated) | 67 | – | 10 | 4.7 | –
Cc1cc(-n2ccnc2)cc2nc(-c3c(NCc4ccccn4)cc[nH]c3=O)[nH]c12 | < 0.03 | 0.08 | < 0.03 | 0.1 | 5.7
Cc1cc(Br)cc2[nH]c(-c3c(N[C@H](CO)Cc4ccccc4)cc[nH]c3=O)nc12 | 0.72 | 3.1 | 0.052 | 0.32 | –
CNC(=N)c1cc(C)c2nc(-c3c(NCC(O)c4cccc(Cl)c4)cc[nH]c3=O)[nH]c2c1 (configuration not stated) | 76 | 15 | 25 | 3.9 | –
COc1ccc(-c2cc(C)c3nc(-c4c(N[C@H](CO)Cc5ccccc5)cc[nH]c4=O)[nH]c3c2)cc1 | 11 | 6.8 | 12 | 2.2 | –
